{
  "source": "patent US20230181746A1",
  "about": "“BENZOYLHYDRAZIDE-DERIVED HDAC DEGRADERS AS THERAPEUTICS FOR TREATING CANCER AND OTHER HUMAN DISEASES” (University of Florida Research Foundation, Inc., priority 2020, published 2023)",
  "key": {"[1]": {"biological_target": "T1, HDAC2 (Homo sapiens, UniProt Q92769)", "T1 sequence (Q92769 whole entry)": "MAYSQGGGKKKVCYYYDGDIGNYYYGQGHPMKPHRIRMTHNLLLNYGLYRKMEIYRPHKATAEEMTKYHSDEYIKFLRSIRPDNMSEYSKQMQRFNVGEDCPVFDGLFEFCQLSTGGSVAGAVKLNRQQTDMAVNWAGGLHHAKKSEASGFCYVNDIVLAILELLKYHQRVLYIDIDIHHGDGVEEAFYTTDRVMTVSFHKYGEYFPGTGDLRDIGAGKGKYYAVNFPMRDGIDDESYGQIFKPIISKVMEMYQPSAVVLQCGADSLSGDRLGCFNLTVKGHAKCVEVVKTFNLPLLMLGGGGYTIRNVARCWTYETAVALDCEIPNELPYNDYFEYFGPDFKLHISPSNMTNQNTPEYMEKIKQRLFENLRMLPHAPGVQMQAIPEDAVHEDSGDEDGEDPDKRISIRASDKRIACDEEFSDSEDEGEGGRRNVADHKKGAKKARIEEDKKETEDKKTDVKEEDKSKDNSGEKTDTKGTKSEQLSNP", "experiment": "HDAC2 protein level in breast cancer cell lines, Western blot", "format": "cell-based", "conditions": "MDA-MB-468 cells, 14 h", "description": "FIG. 3A: Western blot showing HDAC protein levels in MDA-MB-468 cells treated with the indicated concentration of XZ9002 for 14 h. FIG. 3B: pretreatment with 1 μM MG132, or 10 μM VHL032 for 1 h blocked the degradation of HDAC3 by XZ9002 {125 nM}. […] NC: XZ9002-NC. FIG. 3C: time-dependent experiment in MDA-MB-468 cells after treatment with 125 nM XZ9002 at the indicated time points. FIG. 3D: MDA-MB-468 cells were incubated with 125 nM of XZ9002 for 14 h followed by drug washout, and incubation of the cells in drug-free medium for an additional time. Data are presented as representative figures of two independent experiments.\nThe culture of the triple-negative breast cancer cell line MDA-MB-468 and the ER+ breast cancer cell line T47D was exposed to vehicle control (DMSO) and the indicated compounds at specified concentrations for 14 h. Cells were lysed for WB with antibodies against the indicated proteins. Antibodies against acetylated histones at specific sites (H3K27 and H4K5) and acetyl-lysine were used to assess levels of histone acetylation. Levels of HDAC3 were normalized against that of tubulin and % of HDAC3 protein levels in cells treated with the indicated compounds relative to that in DMSO control is shown.\nFIGS. 8A-8B show the cellular activity of XZ9002. […] Cells were lysed for WB. The relative HDAC3 protein level in each sample is shown. […]"}, "[2]": {"biological_target": "T1, HDAC2", "experiment": "In vitro HDAC activity assay (HDAC-Glo I/II), HDAC2", "format": "biochemical", "design": "purchased BPS Bioscience 50002", "conditions": "average of three independent assays ± standard deviation", "description": "Purified HDAC1, HDAC2, and HDAC3 (in complex with the deacetylase activation domain of the human NCOR2 (amino acids 395-498)) were obtained from Enzo Life Sciences (HDAC1, catalog # BML-SE456-0050) and BPS Bioscience (HDAC2, catalog #50002 and HDAC3, catalog #50003), respectively. The enzyme activities were tested using the HDAC-Glo I/II reagents (Promega) according to a protocol provided by the manufacturer."}, "[3]": {"biological_target": "HDAC3 (Homo sapiens, UniProt O15379)", "sequence (O15379 whole entry)": "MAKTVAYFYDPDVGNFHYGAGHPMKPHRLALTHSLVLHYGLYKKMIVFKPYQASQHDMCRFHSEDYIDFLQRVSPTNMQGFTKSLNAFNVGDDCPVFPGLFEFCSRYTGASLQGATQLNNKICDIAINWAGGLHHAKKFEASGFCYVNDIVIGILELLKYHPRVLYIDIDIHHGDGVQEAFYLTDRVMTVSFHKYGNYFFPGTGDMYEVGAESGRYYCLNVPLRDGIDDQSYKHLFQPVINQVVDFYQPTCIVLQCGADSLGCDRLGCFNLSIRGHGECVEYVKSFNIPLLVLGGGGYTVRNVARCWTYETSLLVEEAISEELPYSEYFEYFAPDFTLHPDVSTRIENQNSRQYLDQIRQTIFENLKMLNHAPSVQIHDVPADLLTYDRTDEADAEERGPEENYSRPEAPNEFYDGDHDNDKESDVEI", "sequence (Q9Y618 395-498 partner limits assumed)": "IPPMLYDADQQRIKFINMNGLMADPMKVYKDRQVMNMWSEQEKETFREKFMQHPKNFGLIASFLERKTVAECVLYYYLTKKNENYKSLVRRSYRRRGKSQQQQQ", "experiment": "HDAC3 degradation in MDA-MB-231 xenograft tumors", "format": "in vivo", "design": "from tissue; host or cells: MDA-MB-231 xenograft tumours from NSG mice", "conditions": "female NSG mice, MDA-MB-231 xenografts, 50 mg/kg i.p., tumors 24 h after dosing", "description": "NSG mice bearing MDA-MB-231 xenografts were dosed with vehicle or XZ9002 (50 mg/kg) by i.p. Tumors were dissected from euthanized mice 24 h after dosing. The tumor lysates were analyzed by WB. The quantification is shown in lower panels. ***: p<0.0001 (t-test vs vehicle)."}},
  "data": [
    {"compound": "CCCNNC(=O)c1ccc(-c2ccc(NC(=O)CCCCCCC(=O)N[C@H](C(=O)N3C[C@H](O)C[C@H]3C(=O)N[C@@H](C)c3ccc(-c4scnc4C)cc3)C(C)(C)C)cc2)cc1", "note": "[XZ9002, N^1—((S)-1-((2S,4R)-4-hydroxy-2-(((S)-1-(4-(4-methylthiazol-5-yl)phenyl)ethyl)carbamoyl)pyrrolidin-1-yl)-3,3-dimethyl-1-oxobutan-2-yl)-N^5-(4′-(2-propylhydrazine-1-carbonyl)-[1,1′-biphenyl]-4-yl)octanediamide]", "values": [
      {"measurement": "change in HDAC2 protein level", "setting": "[1]", "value": "no significant changes"},
      {"measurement": "IC50", "setting": "[2]", "value": "1.55 ± 0.07", "unit": "µM"},
      {"measurement": "HDAC3 degradation in xenograft tumor", "setting": "[3]", "value": "effectively degrade"}
    ]}
  ]
}
